The text below walks through data of US20120269882A1, “Brain Delivery of Insulin to Treat Systemic Inflammation” (MOUNT SINAI SCHOOL OF MEDICINE Office of Technology & …, priority 2009, published 2012).

The subject of experiment [1] is LPS induced pro-inflammatory proteins in liver. In words: Western blot of liver tissue lysates after LPS injection and ICV infusion. The class given is in vivo, mice. The note with it: LPS 1 mg/kg i.p., vs vehicle.
Description: Quantification of western blot analyses from liver tissue lysates expressed as fold change to vehicle and normalized over β-actin.
Quantification of western blot analyses from liver tissue lysates expressed as fold change to vehicle and normalized over β-actin. Mice were injected with LPS (1 mg/kg, i.p.) and randomly assigned to receive ICV glucose (4 mM) or vehicle infusions for 4 hours until necropsy.
In experiment [2] the test system is LPS induced pro-inflammatory proteins in spleen. Put plainly: Western blot of spleen tissue lysates after LPS injection and ICV infusion. The class given is in vivo, mice. The note with it: LPS 1 mg/kg i.p., ICV infusion 4 h, vs vehicle. How it is done:
(§1) FIG. 1A-B: FIG. 1A, Experimental protocol for high fat diet feeding and intracerebroventricular (ICV) cannula implantation. 4 week old male C57B1/6 mice were fed a high fat diet for 4 weeks and ICV cannulae were implanted. After 5 days recovery from surgery infusion studies were performed. FIG. 1B, Protocol for infusion studies. Mice were injected with lipopolysaccharides (LPS) (1 mg/kg, i.p.) and randomly assigned to receive ICV insulin or vehicle infusions for 4 hours until necropsy.
FIG. 4: ICV insulin treatment reduces LPS induced pro-inflammatory proteins in spleen. Quantification of Western blot analyses from spleen tissue lysates expressed as fold change to vehicle and normalized over β-actin. Activation of the transcription factors Stat1 and Stat3 is decreased. The pro-inflammatory markers IL-1β, COX2 and IKK-β are reduced in the ICV insulin infused animals. n=6 per group, *p<0.05.
(§2) Male C57B1/6 mice were weaned at 4 weeks of age and fed a High Fat Diet (HFD) for 35 days to induce insulin resistance. After 30 days of HFD feeding, the mice underwent stereotactic surgery to implant intracerebroventricular (ICV) guide cannula (see, FIG. 2 for an illustration of cannula placement) followed by a 5-day recovery period until infusion experiments were carried out. On the day of the experiment, animals were placed in individual cages, received an intraperitoneal (i.p.) injection of E. coli (LPS) (1 mg/kg) and were continuously ICV infused using a micro infusion pump with Artificial CerebroSpinal Fluid (ACSF) or Insulin (0.005 mU/h) for 4 hours, yielding a total dose of 0.020 mU. See FIG. 1A-B for a graphical illustration of the protocol.
To investigate whether central insulin reduces cytokine signaling in peripheral tissues, the expression and phosphorylation of signal transducer and activator of transcription (Stat) was measured in lung (FIG. 4), spleen (FIG. 5) and liver (FIG. 6) tissue by western blot. […] Likewise, the activation of Stat3 which plays a central role in signaling of IL-6 and related cytokines was decreased in peripheral tissues after ICV insulin infusion. Lower protein levels of the pro-inflammatory cytokine IL-1β were detectable in the insulin-infused animals in liver, spleen and lung tissue. Lower IL-1β levels in lung tissue has been associated with improvement of acute lung injury, which is a clinically important sequelae in sepsis.

The next experiment concerns LPS-treated mice. Put plainly: Survival in a mouse model of sepsis (LPS 5 mg/kg, i.p.). The class given is in vivo. The note with it: high fat diet C57B16 mice, ICV infusion up to 5 days, vs vehicle, assessed daily. How it is done:
FIG. 9: ICV insulin improves survival in a mouse model of sepsis. 4 weeks old C57B16 mice were fed high fat diet for 4 weeks and ICV cannulas were implanted. Mice were injected with LPS (5 mg/kg, ip) and randomly assigned to receive ICV insulin or vehicle infusions for up to 5 days (n=11 per group). Survival was assessed daily as depicted.
In view of the potent anti-inflammatory effects mediated by insulin when administered to the CNS, studies were undertaken to determine whether administration of insulin to the CNS would protect mice from death in a sepsis model. 4-week old C57B16 mice were fed high fat diet for 4 weeks and ICV cannulas were implanted as described above. Mice were injected with LPS (5 mg/kg, i.p.) and randomly assigned to receive ICV insulin or vehicle infusions for up to 5 days (n=11 per group). Survival was assessed daily and results were plotted, see, e.g., FIG. 9.

The test system of experiment [3] is LPS induced pro-inflammatory proteins in lung. Put plainly: Western blot of lung tissue lysates after LPS injection and ICV infusion. The note with it: LPS 1 mg/kg i.p., ICV infusion 4 h, vs vehicle. The class given is in vivo, mice. How it is done:
as §1
FIG. 5: ICV insulin treatment reduces LPS induced pro-inflammatory proteins in lung. Quantification of Western blot analyses from lung tissue lysates expressed as fold change to vehicle and normalized over α-tubulin. Activation of the transcription factors Stat1 is decreased by central insulin. The level of the pro-inflammatory cytokine IL-1β is reduced in the ICV insulin infused animals. n=6 per group, *p<0.05.
Male C57B1/6 mice were weaned at 4 weeks of age and fed a High Fat Diet (HFD) for 35 days to induce insulin resistance. […]
To investigate whether central insulin reduces cytokine signaling in peripheral tissues, the expression and phosphorylation of signal transducer and activator of transcription (Stat) was measured in lung (FIG. 4), spleen (FIG. 5) and liver (FIG. 6) tissue by western blot. […]

Experiment [4] deals with LPS induced pro-inflammatory cytokine levels. Put plainly: Serum TNF-α and IL-6 by ELISA after LPS injection and ICV infusion. To be noted: high fat diet C57B1/6 mice, LPS 1 mg/kg i.p., ICV insulin 0.02 mU/h for 4 h vs vehicle, p<0.05. The format is in vivo. How it is done: as §1
FIG. 3: ICV insulin treatment reduces LPS induced pro-inflammatory cytokine levels. Mice were injected with LPS (1mg/kg, i.p.) infused with central insulin (0.02 mU/h) or vehicle for 4 h and sacrificed. Serum concentrations of TNF-α and IL-6 were determined by ELISA. n=12-14 per group, *p<0.05.
Male C57B1/6 mice were weaned at 4 weeks of age and fed a High Fat Diet (HFD) for 35 days to induce insulin resistance. After 30 days of HFD feeding, the mice underwent stereotactic surgery to implant intracerebroventricular (ICV) guide cannula (see, FIG. 2 for an illustration of cannula placement) followed by a 5-day recovery period until infusion experiments were carried out. […]

Experiment [5] has as its system signal transducer and activator of transcription (Stat). In words: Stat expression and phosphorylation in peripheral tissues (lung, spleen, liver) by western blot. The format is in vivo, mice. The note with it: after ICV insulin infusion. How it is done:
as §2
To investigate whether central insulin reduces cytokine signaling in peripheral tissues, the expression and phosphorylation of signal transducer and activator of transcription (Stat) was measured in lung (FIG. 4), spleen (FIG. 5) and liver (FIG. 6) tissue by western blot. […] Likewise, the activation of Stat3 which plays a central role in signaling of IL-6 and related cytokines was decreased in peripheral tissues after ICV insulin infusion. Lower protein levels of the pro-inflammatory cytokine IL-1β were detectable in the insulin-infused animals in liver, spleen and lung tissue. […]

Setting [6] is: ICV insulin 4 h, normalized over β-actin.

“Also recorded” adds a separate entry of the source.

For the compound `O=C[C@H](O)[C@@H](O)[C@H](O)[C@H](O)CO` [glucose], in experiment [1] (ICV glucose 4 mM for 4 hours), the “Activation of Stat1 in liver” value was “significantly increased”, the “Activation of Stat3 in liver” value is recorded as “significantly increased”, the “IKK-β levels in liver (NF-κB signaling)” value is reported as “Higher levels” and the “PDI expression in liver (marker for ER stress)” value is recorded as “Higher levels; also recorded: elevated”.

Take insulin: in experiment [2], the “COX2 protein in spleen” value was “reduced”, the “IKK-β protein in spleen” value is listed as “reduced” and the “IL-1β protein in spleen” value is given as “reduced; also recorded: Lower”. In addition, in experiment [2] (normalized over β-actin), the “Activation of Stat1 in spleen” value is “decreased” and the “Activation of Stat3 in spleen” value was “decreased”. For the same compound, in the experiment with LPS-treated mice, the Survival entry was “significantly (p=0.0194) improved; also recorded: significantly improve the survival”. In addition, the “IL-1β protein in lung” value in experiment [3] was “reduced; also recorded: Lower”. The “Activation of Stat1 in lung” value in experiment [3] (normalized over α-tubulin) is given as “decreased”. Moreover, in experiment [4], the “Serum concentration of IL-6” value is given as “reduces” and the “Serum concentration of TNF-α” value is on record as “reduces”. In experiment [5], the “Activation of Stat3 in peripheral tissues” value was “decreased”. In addition, in experiment [5] (measured in lung, spleen and liver), the “LPS induced phosphorylation of Stat1” value is “marked inhibition”. For the same compound, the “IL-1β protein in liver” value in experiment [1] (ICV insulin 4 h) is “reduced; also recorded: Lower”. For the same compound, in experiment [1] (setting [6]), the “Activation of Stat1 in liver” value is listed as “decreased” and the “Activation of Stat3 in liver” value is “decreased”.
